Measured values taken from patent publication US20260166039A1 (SCHRÖDINGER, INC., priority 2022, published 2026).

What was measured:
[1] = test system: phosphorylation of Cdc2 Y15 (Wee1 substrate) in A427 cells; assay: Phosphorylated Cdc2 MSD Electrochemiluminescence Assay; format: cell-based; conditions: Homo sapiens, A-427, class symbols, read-out: A427 pCDC2 MSD IC50
Procedure, shortened: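 A427 cells (RPMI 1640, 10% FBS) treated 20 h after plating with 3-fold serial compound dilutions, in duplicate, 37 °C, 5% CO2; total incubation 6 h. Lysate Cdc2 pY15 read by MSD electrochemiluminescence sandwich immunoassay; % remaining signal normalised to DMSO (high) and reference Wee1 inhibitor (low) controls.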

Wee1 kinase domain = target: T1, Wee1 kinase domain (Homo sapiens, UniProt P30291); assay: Wee1 Kinase Biochemical Assay (ADP-Glo); conditions: class symbols; 1 nM Wee1 enzyme, 15 uM ATP, 4 hours at 25° C.
T1 construct: Wee1 kinase domain was purchased from Carna (catalog #05-177); purchased Carna 05-177
T1 sequence (P30291 299-569 limits assumed): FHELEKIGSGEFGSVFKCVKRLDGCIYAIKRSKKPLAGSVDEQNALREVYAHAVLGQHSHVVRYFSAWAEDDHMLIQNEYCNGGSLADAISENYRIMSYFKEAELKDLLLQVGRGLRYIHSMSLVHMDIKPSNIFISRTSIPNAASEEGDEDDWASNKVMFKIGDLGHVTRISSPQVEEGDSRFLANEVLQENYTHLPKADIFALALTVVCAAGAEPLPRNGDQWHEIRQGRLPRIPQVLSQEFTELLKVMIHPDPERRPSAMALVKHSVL
Procedure, shortened: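 Poly(Lys,Tyr 4:1) phosphorylation by the kinase domain is followed as ADP output (ADP-Glo) after 4 h at 25 °C, with ATP at 15 uM. Values are percent inhibition between vehicle and full-inhibition controls.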

Row | IC50 [1] [nM] | IC50 (Wee1 kinase domain) [nM] | Compound
1 | 100 to 1000 | < 10 | Cn1cc([C@H]2C[C@@H]2C(=O)Nc2ncc3c(n2)N(c2cccc(N=S(C)(C)=O)n2)[C@@H]2CC(C)(C)OC[C@]32C)cn1 (single isomer, unassigned) [Example 406]
2 | 1000 to 10000 | < 10 | Cn1cc(C(=O)Nc2ncc3c(n2)N(c2cccc(N=S(C)(C)=O)n2)[C@@H]2CC(C)(C)OC[C@]32C)cn1 (single isomer, unassigned) [Example 408]
3 | 1000 to 10000 | < 10 | CC1(C)C[C@H]2N(c3cccc(N=S(C)(C)=O)n3)c3nc(NC(=O)[C@H]4C[C@@H]4C4CCOCC4)ncc3[C@@]2(C)CO1 (single isomer, unassigned) [Example 411]
4 | ≥ 10000 | < 10 | CC1(C)C[C@H]2N(c3cccc(N=S(C)(C)=O)n3)c3nc(NC(=O)[C@@H]4C[C@H]4C4CCOCC4)ncc3[C@@]2(C)CO1 (single isomer, unassigned) [Example 412]
5 | 100 to 1000 | < 10 | CN1C[C@H]2C[C@@H]1CN2c1ccc(Nc2ncc3c(n2)N(c2cccc(C(C)(C)O)n2)[C@@H]2CC(C)(C)OC[C@]32C)cc1 (single isomer, unassigned) [Example 413]
6 | 100 to 1000 | < 10 | CN1C[C@@H]2C[C@H]1CN2c1ccc(Nc2ncc3c(n2)N(c2cccc(C(C)(C)O)n2)[C@@H]2CC(C)(C)OC[C@]32C)cc1 (single isomer, unassigned) [Example 416]
7 | < 100 | < 10 | CC1(C)C[C@@H]2N(c3cccc(C(C)(C)O)n3)c3nc(Nc4ccc(O[C@@H]5CCNC5)cc4)ncc3[C@]2(C)CO1 (single isomer, unassigned) [Example 417]
8 | < 100 | < 10 | CC1(C)C[C@H]2N(c3cccc(C(C)(C)O)n3)c3nc(Nc4ccc(O[C@H]5CCNC5)cc4)ncc3[C@@]2(C)CO1 (single isomer, unassigned) [Example 419]
9 | < 100 | < 10 | CN1CC[C@H](Oc2ccc(Nc3ncc4c(n3)N(c3cccc(C(C)(C)O)n3)[C@@H]3CC(C)(C)OC[C@]43C)cc2)C1 (single isomer, unassigned) [Example 421]
10 | 100 to 1000 | < 10 | Cc1cc(Nc2ncc3c(n2)N(c2cccc(C(C)(C)O)n2)[C@@H]2CC(C)(C)OC[C@]32C)ccc1N1C[C@H]2C[C@@H]1CN2C (single isomer, unassigned) [Example 425]
11 | 100 to 1000 | < 10 | CN1C[C@H]2C[C@@H]1CN2c1ccc(Nc2ncc3c(n2)N(c2cccc(C(C)(C)O)n2)[C@@H]2CC(C)(C)OC[C@]32C)cc1F (single isomer, unassigned) [Example 427]
12 | 100 to 1000 | < 10 | Cc1cc(Nc2ncc3c(n2)N(c2cccc(C(C)(C)O)n2)[C@@H]2CC(C)(C)OC[C@]32C)ccc1N1C[C@@H]2C[C@H]1CN2C (single isomer, unassigned) [Example 429]
13 | 100 to 1000 | < 10 | CN1C[C@@H]2C[C@H]1CN2c1ccc(Nc2ncc3c(n2)N(c2cccc(C(C)(C)O)n2)[C@@H]2CC(C)(C)OC[C@]32C)cc1F (single isomer, unassigned) [Example 431]
14 | 100 to 1000 | < 10 | CN1C[C@H]2C[C@@H]1CN2c1ccc(Nc2ncc3c(n2)N(c2cccc(C(C)(C)O)n2)[C@@H]2CC(C)(C)OC[C@]32C)cc1Cl (single isomer, unassigned) [Example 433]
15 | 100 to 1000 | < 10 | CN1C[C@@H]2C[C@H]1CN2c1ccc(Nc2ncc3c(n2)N(c2cccc(C(C)(C)O)n2)[C@@H]2CC(C)(C)OC[C@]32C)cc1Cl (single isomer, unassigned) [Example 435]
16 | 100 to 1000 | < 10 | CN1CC[C@@H]2CN(c3ccc(Nc4ncc5c(n4)N(c4cccc(C(C)(C)O)n4)[C@@H]4CC(C)(C)OC[C@]54C)cc3)C[C@@H]21 (single isomer, unassigned) [Example 437]
17 | 100 to 1000 | < 10 | CN1CC[C@H]2CN(c3ccc(Nc4ncc5c(n4)N(c4cccc(C(C)(C)O)n4)[C@@H]4CC(C)(C)OC[C@]54C)cc3)C[C@H]21 (single isomer, unassigned) [Example 439]
18 | 100 to 1000 | < 10 | CN1CC2(C1)CN(c1ccc(Nc3ncc4c(n3)N(c3cccc(C(C)(C)O)n3)[C@@H]3CC(C)(C)OC[C@]43C)cc1)C2 (single isomer, unassigned) [Example 443]
19 | 100 to 1000 | < 10 | CN1C[C@@H]2CN(c3ccc(Nc4ncc5c(n4)N(c4cccc(C(C)(C)O)n4)[C@@H]4CC(C)(C)OC[C@]54C)cc3)C[C@@H]2C1 (single isomer, unassigned) [Example 446]
20 | 100 to 1000 | < 10 | CNCc1cccc(N2c3nc(Nc4ccc(N5CCN(C)CC5)c(C)c4)ncc3[C@@]3(C)COC(C)(C)C[C@@H]23)n1 (single isomer, unassigned) [Example 448]
21 | 100 to 1000 | < 10 | CNCc1cccc(N2c3nc(Nc4ccc(N5CCN(C)C(=O)C5)cc4)ncc3[C@@]3(C)COC(C)(C)C[C@@H]23)n1 (single isomer, unassigned) [Example 450]
22 | 100 to 1000 | < 10 | CNCc1cccc(N2c3nc(Nc4ccc([C@H]5CCNC5)cc4)ncc3[C@@]3(C)COC(C)(C)C[C@@H]23)n1 (single isomer, unassigned) [Example 452]
23 | 100 to 1000 | < 10 | CNCc1cccc(N2c3nc(Nc4ccc([C@@H]5CCNC5)cc4)ncc3[C@@]3(C)COC(C)(C)C[C@@H]23)n1 (single isomer, unassigned) [Example 454]
24 | 1000 to 10000 | < 10 | CNCc1cccc(N2c3nc(Nc4ccc(C(C)(C)C(=O)O)cc4)ncc3[C@@]3(C)COC(C)(C)C[C@@H]23)n1 (single isomer, unassigned) [Example 458]
25 | 100 to 1000 | < 10 | CNCc1cccc(N2c3nc(Nc4ccc(-c5cnn(C)c5)nc4)ncc3[C@@]3(C)COC(C)(C)C[C@@H]23)n1 (single isomer, unassigned) [Example 460]
26 | 100 to 1000 | < 10 | CNCc1cccc(N2c3nc(Nc4ccc(-c5cnn(C)c5)c(C)c4)ncc3[C@@]3(C)COC(C)(C)C[C@@H]23)n1 (single isomer, unassigned) [Example 464]
27 | 1000 to 10000 | < 10 | CNCc1cccc(N2c3nc(Nc4ccc(-n5ccnc5)c(F)c4)ncc3[C@@]3(C)COC(C)(C)C[C@@H]23)n1 (single isomer, unassigned) [Example 466]
28 | 1000 to 10000 | < 10 | CNCc1cccc(N2c3nc(Nc4ccc(-n5ccnc5)nc4)ncc3[C@@]3(C)COC(C)(C)C[C@@H]23)n1 (single isomer, unassigned) [Example 468]
29 | 100 to 1000 | < 10 | CNCc1cccc(N2c3nc(Nc4cccc(N5CCOCC5)c4)ncc3[C@@]3(C)COC(C)(C)C[C@@H]23)n1 (single isomer, unassigned) [Example 470]
30 | 100 to 1000 | < 10 | CNCc1cccc(N2c3nc(Nc4cnn(C)c4)ncc3[C@@]3(C)COC(C)(C)C[C@@H]23)n1 (single isomer, unassigned) [Example 472]

Row | Compound | IC50 [1] [nM] | IC50 (Wee1 kinase domain) [nM]
31 | CN1[C@@H]2C[C@H]1CN(c1ccc(Nc3ncc4c(n3)N(c3cccc(C(C)(C)O)n3)[C@@H]3CC(C)(C)OC[C@]43C)cc1)C2 (single isomer, unassigned) [Example 441] | 100 to 1000 | < 10
